The sequences below were run on peptide-pulsed C1R-A11 (assay: In vitro CTL induction, IFN-gamma ELISPOT assay (HLA-A*1101)). Conditions: CTLs from HLA-A*1101-positive donors, DCs pulsed with 20 micro-g/ml peptide, day 21, versus unpulsed C1R-A11.
Assay type: cell-based, human
Excerpt: Monocyte-derived dendritic cells (DCs) were used as the antigen-presenting cell to induce a cytotoxic T lymphocyte (CTL) response against peptides presented on human leukocyte antigens (HLAs). As described in the other sections, DCs were generated in vitro (Nakahara S et al., Cancer Res 2003, 63(14): 4112-8). Specifically, peripheral-blood mononuclear cells isolated from healthy volunteers (HLA-A*1101-positive) with the Ficoll-Paque plus solution (Pharmacia) were separated by attaching to plastic tissue culture dishes (Becton Dickinson) and concentrated as a monocyte fraction. The monocyte-concentrated population was cultured in the presence of 1000 IU/ml granulocyte macrophage colony-stimulating factor (R&D System) and 1000 IU/ml interleukin (IL)-4 (R&D System) in an AIM-V medium (Invitrogen) containing 2% heat-inactivated autologous serum (AS). After seven days of culturing, the cytokine-induced DCs were pulsed with 20 micro-g/ml each of the synthesized peptides in an AIM-V medium at 37 degrees C. for three hours in the presence of 3 micro-g/ml beta 2-microglobulin.
Next, these peptide-pulsed DCs were inactivated by X-ray irradiation (20 Gy), and mixed in a 1:20 ratio with autologous CD8^+ T cells obtained by positive selection using the CD8 Positive Isolation Kit (Dynal). These culture products were seeded in a 48-well plate (Corning). […]

Sequence | peptide-specific CTL activity (IFN-gamma production, ELISPOT)
ATINKRLCK (a peptide derived from DEPDC1) [SEQ ID NO: 2] | specific IFN-gamma production was not observed

The sequences below were run on peptide-pulsed C1R-A01 cells (assay: In vitro CTL induction, IFN-gamma ELISPOT assay (HLA-A*0101)). Conditions: CTLs from HLA-A*0101-positive donors, DCs pulsed with 20 micro-g/ml peptide, day 21, versus unpulsed C1R-A01.
Assay type: cell-based, human
Excerpt: Monocyte-derived dendritic cells (DCs) were used as the antigen-presenting cell to induce a cytotoxic T lymphocyte (CTL) response against peptides presented on human leukocyte antigens (HLAs). As described in the other sections, DCs were generated in vitro (Nakahara S et al., Cancer Res 2003, 63(14): 4112-8). Specifically, peripheral-blood mononuclear cells isolated from healthy volunteers (HLA-A*0101-positive) with the Ficoll-Paque plus solution (Pharmacia) were separated by attaching to plastic tissue culture dishes (Becton Dickinson) and concentrated as a monocyte fraction. The monocyte-concentrated population was cultured in the presence of 1000 IU/ml granulocyte macrophage colony-stimulating factor (R&D System) and 1000 IU/ml interleukin (IL)-4 (R&D System) in an AIM-V medium (Invitrogen) containing 2% heat-inactivated autologous serum (AS). After seven days of culturing, the cytokine-induced DCs were pulsed with 20 micro-g/ml each of the synthesized peptides in an AIM-V medium at 37 degrees C. for three hours in the presence of 3 micro-g/ml beta 2-microglobulin. Next, these peptide-pulsed DCs were inactivated by X-ray irradiation (20 Gy), and mixed in a 1:20 ratio with autologous CD8^+ T cells obtained by positive selection using the CD8 Positive Isolation Kit (Dynal). These culture products were seeded in a 48-well plate (Corning). Each well was made to contain 1.5×10^4 peptide-pulsed DCs, 3×10^5 CD8^+ T cells and 10 ng/ml IL-7 (R&D System) in 0.5 ml of the AIM-V/2% AS medium. Three days later, these culture products were added with a final concentration of 20 IU/ml IL-2 (CHIRON). On day 7 and day 14, T cells were further stimulated with peptide-pulsed autologous DCs. The DCs were prepared every time by the same method as above. On day 21, after the third peptide stimulation, CTL activities were examined against the peptide-pulsed C1R-A01 cells (Tanaka H et al., Br J Cancer 2001, 84(1): 94-9; Umano Y et al., Br J Cancer 2001, 84(8): 1052-7; Uchida N et al., Clin Cancer Res 2004, 10(24): 8577-86; Suda T et al., Cancer Sci 2006, 97(5): 411-9; Watanabe T et al., Cancer Sci 2005, 96(8): 498-506).
To examine specific CTL activity, an IFN-gamma ELISPOT assay and an IFN-gamma ELISA were performed. Specifically, peptide-pulsed C1R-A01 cells (1×10^4 cells/well) were prepared as the stimulator cell. The induced CTLs, i.e., CTL lines and CTL clones, were used as the responder cell. The IFN-gamma ELISPOT assay and IFN-gamma ELISA were performed according to the manufacturer's manual.

Sequence | peptide-specific CTL activity (IFN-gamma production, ELISPOT)
LTFEYYELF (a peptide derived from DEPDC1) [SEQ ID NO: 88] | potent IFN-gamma production
ESQGVPPGPY (a peptide derived from DEPDC1) [SEQ ID NO: 91] | potent IFN-gamma production
LSENSLLPA (a peptide derived from DEPDC1) [SEQ ID NO: 84] | potent IFN-gamma production
PTTESEAALF (a peptide derived from DEPDC1) [SEQ ID NO: 94] | specific IFN-gamma production was not observed
QTAVEKHLDY (a peptide derived from DEPDC1) [SEQ ID NO: 90] | potent IFN-gamma production
TTESEAALF (a peptide derived from DEPDC1) [SEQ ID NO: 83] | potent IFN-gamma production
HQEILQVPSY (a peptide derived from DEPDC1) [SEQ ID NO: 103] | potent IFN-gamma production
QEDVEEVWRY (a peptide derived from DEPDC1) [SEQ ID NO: 106] | potent IFN-gamma production
LPEPLLTFEY (a peptide derived from DEPDC1) [SEQ ID NO: 107] | potent IFN-gamma production
TAGEAVDWLY (a peptide derived from DEPDC1) [SEQ ID NO: 92] | potent IFN-gamma production
HSEENIQKPF (a peptide derived from DEPDC1) [SEQ ID NO: 101] | potent IFN-gamma production
LFAPLPTYSY (a peptide derived from DEPDC1) [SEQ ID NO: 96] | potent IFN-gamma production
SNDMNNPTY (a peptide derived from DEPDC1) [SEQ ID NO: 86] | potent IFN-gamma production
EVWRYVILIY (a peptide derived from DEPDC1) [SEQ ID NO: 99] | potent IFN-gamma production
RSNDMNNPTY (a peptide derived from DEPDC1) [SEQ ID NO: 58] | potent IFN-gamma production
STECLLLSLL (a peptide derived from DEPDC1) [SEQ ID NO: 104] | potent IFN-gamma production
AGEAVDWLY (a peptide derived from DEPDC1) [SEQ ID NO: 82] | potent IFN-gamma production
KSDDLPHWV (a peptide derived from DEPDC1) [SEQ ID NO: 81] | potent IFN-gamma production
NVDDNNQLF (a peptide derived from DEPDC1) [SEQ ID NO: 85] | potent IFN-gamma production
RSSTRRNSY (a peptide derived from DEPDC1) [SEQ ID NO: 21] | potent IFN-gamma production
FLESKPKQEF (a peptide derived from DEPDC1) [SEQ ID NO: 102] | potent IFN-gamma production
VSDRSSGIH (a peptide derived from DEPDC1) [SEQ ID NO: 89] | potent IFN-gamma production
FQKEYPLIY (a peptide derived from DEPDC1) [SEQ ID NO: 87] | potent IFN-gamma production
